Laboratory results reported in US8362034B2, “Quinoline compound, and composition containing centipede extract or compounds isolated therefrom for prevention and treatment of cardiovascular disease” (Korea Research Institute of Bioscience and Biotechnology, priority 2005, dated 2013).

Legend:
LDL = assay: LDL-antioxidant activity by TBARS (Cu2+-mediated LDL-oxidation); format: biochemical, human
Protocol: Ed., Methods in Enzymology. Vol. 234, Oxygen radicals in biological systems Part D. Academic press, San Diego, 1994]. Three hundred ml of human plasma was taken, followed by centrifugation at 100,000×g for 24 hours with an ultracentrifuge. VLDL/chylomicrom layer floating in the supernatant was eliminated. […] At that time, the compounds were dissolved in dimethylsulfoxide (DMSO) and diluted at different concentrations to be ready for the experiment. DMSO alone was used as a negative control. As a positive control, probucol, a known antioxidant, was added. To each solution was added 10 μl of 0.25 mM CuSO4, followed by reaction at 37° C. for 4 hours. The reaction was terminated by addition of 1 ml of 20% trichloroacetic acid (TCA) solution. 1 ml of 0.67% TBA solution dissolved in 0.05 N NaOH solution was added thereto, followed by stirring for 10 seconds. The solution was heated at 95° C. for 5 minutes to induce color development and then cooled down with ice water. The solution was centrifuged at 3000 rpm for 5 minutes to separate the supernatant and OD540 was measured with UV/VIS spectrophotometer to measure the level of malondialdehyde (MDA) generated by the color development. In the meantime, to calculate the standard curve of malondialdehyde, the stock solution of malonaldehyde bis (dimethylacetal) was diluted, resulting in PBS standard solution containing 0˜10 nmol malondialdehyde. […] The malondialdehyde generated from the compounds of the invention was quantified and inhibitory activity and IC50 were also calculated.

hACAT-1 = molecular target: T1, hACAT-1 (Homo sapiens, UniProt P35610); assay: ACAT activity, hACAT-1 microsomes, [1-14C]oleoyl-CoA; format: biochemical; conditions: 100 μg/ml; read-out: Inhibitory activity (%) hACAT-1
T1 construct: made in house; host or cells: baculovirus; virus produced in sf9, protein expressed in Hi5 insect cells; microsome fraction used
T1 sequence (P35610 1-550): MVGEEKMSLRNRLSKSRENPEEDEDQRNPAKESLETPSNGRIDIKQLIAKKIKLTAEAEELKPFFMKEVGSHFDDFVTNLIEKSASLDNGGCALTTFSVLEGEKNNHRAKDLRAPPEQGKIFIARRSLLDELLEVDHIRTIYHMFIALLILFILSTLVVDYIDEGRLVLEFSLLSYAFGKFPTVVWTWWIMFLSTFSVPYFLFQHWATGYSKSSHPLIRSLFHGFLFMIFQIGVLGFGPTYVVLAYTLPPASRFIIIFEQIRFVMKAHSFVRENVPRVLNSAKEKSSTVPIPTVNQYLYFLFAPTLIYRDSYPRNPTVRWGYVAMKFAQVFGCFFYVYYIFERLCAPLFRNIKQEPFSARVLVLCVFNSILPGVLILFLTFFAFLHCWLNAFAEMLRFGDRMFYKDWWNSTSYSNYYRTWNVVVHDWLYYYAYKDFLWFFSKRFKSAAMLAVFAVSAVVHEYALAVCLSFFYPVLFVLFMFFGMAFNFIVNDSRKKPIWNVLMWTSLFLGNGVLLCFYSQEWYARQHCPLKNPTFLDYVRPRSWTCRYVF
Text: (§1) To investigate the effect on human ACAT-1 and ACAT-2 activities, hACAT-1 and hACAT-2 proteins were obtained using baculovirus expression system.
(§2) hACAT-1 and hACAT-2 cDNAs, obtained by human liver cDNA library screening, were inserted into the baculovirus transfer vector, which was introduced into an insect cell line sf9 to produce virus. Then, recombinant virus of each hACAT-1 and hACAT-2 was separated by plaque purification, followed by amplification three times to raise titer of the viral stock. Hi5 insect cells having high protein expression efficiency were infected with the recombinant virus (1 multiplicity of infection), followed by shaking culture at 27° C. for a day. Centrifugation was performed at 500×g for 15 minutes to separate microsome fractions from Hi5 cells over-expressing hACAT-1 and hACAT-2. The resultant cells were lysed in a hypotonic buffer by quick freezing-quick thawing, followed by ultracentrifugation at 100,000×g for one hour. The obtained microsome fractions were suspended in the hypotonic buffer until the concentration of the protein reached 8 mg/ml, which was stored in a deep freezer until use.
(§3) To measure the ACAT activity, [1-^14C] oleoly-CoA (56.0 μCi/μmol; Amersham) was used as a substrate and a method of Brecher & Chan was used with a slight modification [P. Brecher and C. Chan, Biochem. Biophys. Acta, 617, 458, 1980].
(§4) Ten μl of the centipede extracts or the compound prepared in the above Example was mixed with 4.0 μl of the microsomal solution prepared in Experimental Example <2-1>, 20.0 μl of an activity analyzing buffer (0.5 M KH2PO4, 10 mM DTT, pH 7.4; Sigma), 15.0 μl of fatty acid-free bovine serum albumin (fatty acid-free BSA, stock concentration 40 mg/ml; Sigma), 2.0 μl of cholesterol (stock solution 20 mg/ml; Sigma) and 41.0 μl of distilled water, which was preincubated at 37° C. for 15 minutes. […] The radioactivity of the mixture was measured with 1450 Microbeta liquid scintillation counter (Wallacoy).
(§5) ACAT activity was calculated as pmol of cholesteryl oleate synthesized per 1 mg of protein in one minute (pmol/minute/mg of protein).

hACAT-2 = molecular target: T2, hACAT-2 (Homo sapiens, UniProt O75908); assay: ACAT activity, hACAT-2 microsomes, [1-14C]oleoyl-CoA; format: biochemical; conditions: 100 μg/ml; read-out: Inhibitory activity (%) hACAT-2
T2 construct: made in house; host or cells: baculovirus; virus produced in sf9, protein expressed in Hi5 insect cells; microsome fraction used
T2 sequence (O75908 1-522): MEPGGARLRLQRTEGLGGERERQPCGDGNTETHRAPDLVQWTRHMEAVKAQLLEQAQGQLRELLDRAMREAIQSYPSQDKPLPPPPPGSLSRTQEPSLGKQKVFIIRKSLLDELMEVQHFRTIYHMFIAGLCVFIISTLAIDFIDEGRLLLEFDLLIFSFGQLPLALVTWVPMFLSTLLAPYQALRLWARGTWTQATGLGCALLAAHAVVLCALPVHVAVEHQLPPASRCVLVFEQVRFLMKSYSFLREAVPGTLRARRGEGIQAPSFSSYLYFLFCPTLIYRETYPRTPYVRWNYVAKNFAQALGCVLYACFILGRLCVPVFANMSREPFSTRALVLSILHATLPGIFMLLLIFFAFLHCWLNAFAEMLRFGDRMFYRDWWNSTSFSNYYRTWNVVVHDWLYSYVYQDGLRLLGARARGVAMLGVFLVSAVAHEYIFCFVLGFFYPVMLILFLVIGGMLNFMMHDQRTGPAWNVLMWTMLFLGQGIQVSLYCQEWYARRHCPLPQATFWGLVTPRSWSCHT
Text: as §1, §2, §3, §4, §5

COc1c(O)nc2c(O)cccc2c1OC [Compound 2, 3,4-dimethoxyquinoline-2,8-diol]
IC50 (LDL): 63 µM | inhibition at 100 µg/mL (hACAT-1): 79% | inhibition at 100 µg/mL (hACAT-2): 58%

CC(C)(C)c1ccc(O)c(C(C)(C)C)c1 [Compound 3, 2,4-di-tert-butylphenol]
IC50 (LDL): 8.2 µM | inhibition at 100 µg/mL (hACAT-1): 63% | inhibition at 100 µg/mL (hACAT-2): 51%

Oc1cnc2c(O)cccc2c1 [Compound 1, 3,8-dihydroxyquinoline]
IC50 (LDL): 2.6 µM | inhibition at 100 µg/mL (hACAT-1): 60% | inhibition at 100 µg/mL (hACAT-2): 50%

CC(C)(Sc1cc(C(C)(C)C)c(O)c(C(C)(C)C)c1)Sc1cc(C(C)(C)C)c(O)c(C(C)(C)C)c1 [Probucol, probucol, reference compound]
IC50 (LDL): 3.1 µM
